Experimental data as given in US20070049564A1 (Wyeth, priority 2005, published 2007).
In brackets after ≈: the same amount, converted by molar mass. Like-named read-outs stand apart in the source and are kept apart here.

Assays:
E. coli GC 1073 = experiment: MIC, broth microdilution; conditions: Escherichia coli
Staph. aureus Smith = experiment: In vivo activity (oral, iv; ED50) against Staph. aureus Smith in mice
S. pneumoniae+ GC 4465 = experiment: MIC, broth microdilution; conditions: Streptococcus pneumoniae
S. aureus GC 6467 = experiment: MIC, broth microdilution; conditions: Staphylococcus aureus
E. faecalis GC 2267 = experiment: MIC, broth microdilution; conditions: Enterococcus faecalis
E. coli GC 4559 = experiment: MIC, broth microdilution; conditions: Escherichia coli
S. aureus GC 1079 = experiment: MIC, broth microdilution; conditions: Staphylococcus aureus
S. aureus GC 4536 = experiment: MIC, broth microdilution; conditions: Staphylococcus aureus
S. pneumoniae* GC 4465 = experiment: MIC, broth microdilution; conditions: Streptococcus pneumoniae
c. albicans GC 3066 = experiment: MIC, broth microdilution
E. coli GC 2235 = experiment: MIC, broth microdilution; conditions: Escherichia coli
E. coli GC 6465 = experiment: MIC, broth microdilution; conditions: Escherichia coli
E. coli GC 2272 = experiment: MIC, broth microdilution; conditions: Escherichia coli
S. aureus GC 1131 = experiment: MIC, broth microdilution; conditions: Staphylococcus aureus
S. agalactiae GC 4564 = experiment: MIC, broth microdilution; conditions: Streptococcus agalactiae
E. faecalis GC 4555 = experiment: MIC, broth microdilution; conditions: Enterococcus faecalis
S. typhimurium GC 2172 = experiment: MIC, broth microdilution; conditions: Salmonella enterica, TYPHIMURIUM
S. epidermidis GC 4935 = experiment: MIC, broth microdilution; conditions: Staphylococcus epidermidis
E. faecalis GC 2242 = experiment: MIC, broth microdilution; conditions: Enterococcus faecalis
E. coli GC 4560 = experiment: MIC, broth microdilution; conditions: Escherichia coli
[1] = read-out: MINIMAL INHIBITORY CONCENTRATION MIC, pre-incubated in Mouse Serum
[2] = read-out: MINIMAL INHIBITORY CONCENTRATION MIC, pre-incubated in Water

MIC (E. coli GC 1073; GC1073, read-out: MINIMAL INHIBITORY CONCENTRATION MIC, pre-incubated in Mouse Serum): 0.5 µg/mL (≈ 0.62 µM) | MIC (E. coli GC 1073; GC1073, read-out: MINIMAL INHIBITORY CONCENTRATION MIC, pre-incubated in Water): > 64 µg/mL | MIC (S. pneumoniae+ GC 4465; [1]): 2 µg/mL (≈ 2.48 µM) | MIC (S. pneumoniae+ GC 4465; [2]): 0.5 µg/mL (≈ 0.62 µM) | MIC (S. aureus GC 6467; GC6467, read-out: MINIMAL INHIBITORY CONCENTRATION MIC, pre-incubated in Mouse Serum): 4 µg/mL (≈ 4.96 µM) | MIC (S. aureus GC 6467; GC6467, read-out: MINIMAL INHIBITORY CONCENTRATION MIC, pre-incubated in Water): 64 µg/mL (≈ 79.4 µM) | MIC (E. faecalis GC 2267; GC2267, read-out: MINIMAL INHIBITORY CONCENTRATION MIC, pre-incubated in Mouse Serum): 2 µg/mL (≈ 2.48 µM) | MIC (E. faecalis GC 2267; GC2267, read-out: MINIMAL INHIBITORY CONCENTRATION MIC, pre-incubated in Water): 64 µg/mL (≈ 79.4 µM) | MIC (E. coli GC 4559; GC4559, read-out: MINIMAL INHIBITORY CONCENTRATION MIC, pre-incubated in Mouse Serum): 0.5 µg/mL (≈ 0.62 µM) | MIC (E. coli GC 4559; GC4559, read-out: MINIMAL INHIBITORY CONCENTRATION MIC, pre-incubated in Water): > 64 µg/mL | MIC (S. aureus GC 1079; GC1079, read-out: MINIMAL INHIBITORY CONCENTRATION MIC, pre-incubated in Mouse Serum): 2 µg/mL (≈ 2.48 µM) | MIC (S. aureus GC 1079; GC1079, read-out: MINIMAL INHIBITORY CONCENTRATION MIC, pre-incubated in Water): 64 µg/mL (≈ 79.4 µM) | MIC (S. aureus GC 4536; GC4536, read-out: MINIMAL INHIBITORY CONCENTRATION MIC, pre-incubated in Mouse Serum): 0.5 µg/mL (≈ 0.62 µM) | MIC (S. aureus GC 4536; GC4536, read-out: MINIMAL INHIBITORY CONCENTRATION MIC, pre-incubated in Water): 32 µg/mL (≈ 39.7 µM) | MIC (S. pneumoniae* GC 4465; [1]): < 0.06 µg/mL | MIC (S. pneumoniae* GC 4465; [2]): < 0.06 µg/mL | MIC (c. albicans GC 3066; Candida albicans, GC3066, read-out: MINIMAL INHIBITORY CONCENTRATION MIC): > 64 µg/mL | MINIMAL INHIBITORY CONCENTRATION MIC (c. albicans GC 3066; pre-incubated in Water): >64 UG/ML | MIC (E. coli GC 2235; GC2235, read-out: MINIMAL INHIBITORY CONCENTRATION MIC, pre-incubated in Mouse Serum): 0.5 µg/mL (≈ 0.62 µM) | MIC (E. coli GC 2235; GC2235, read-out: MINIMAL INHIBITORY CONCENTRATION MIC, pre-incubated in Water): > 64 µg/mL | MIC (E. coli GC 6465; GC6465, read-out: MINIMAL INHIBITORY CONCENTRATION MIC, pre-incubated in Mouse Serum): 8 µg/mL (≈ 9.93 µM) | MIC (E. coli GC 6465; GC6465, read-out: MINIMAL INHIBITORY CONCENTRATION MIC, pre-incubated in Water): > 64 µg/mL | MIC (E. coli GC 2272; GC2272, read-out: MINIMAL INHIBITORY CONCENTRATION MIC, pre-incubated in Mouse Serum): 0.5 µg/mL (≈ 0.62 µM) | MIC (E. coli GC 2272; GC2272, read-out: MINIMAL INHIBITORY CONCENTRATION MIC, pre-incubated in Water): > 64 µg/mL | MIC (S. aureus GC 1131; GC1131, read-out: MINIMAL INHIBITORY CONCENTRATION MIC, pre-incubated in Mouse Serum): 0.5 µg/mL (≈ 0.62 µM) | MIC (S. aureus GC 1131; GC1131, read-out: MINIMAL INHIBITORY CONCENTRATION MIC, pre-incubated in Water): 32 µg/mL (≈ 39.7 µM) | MIC (S. agalactiae GC 4564; GC4564, read-out: MINIMAL INHIBITORY CONCENTRATION MIC, pre-incubated in Mouse Serum): 0.25 µg/mL (≈ 0.31 µM) | MIC (S. agalactiae GC 4564; GC4564, read-out: MINIMAL INHIBITORY CONCENTRATION MIC, pre-incubated in Water): 0.5 µg/mL (≈ 0.62 µM) | MIC (E. faecalis GC 4555; GC4555, read-out: MINIMAL INHIBITORY CONCENTRATION MIC, pre-incubated in Mouse Serum): 0.25 µg/mL (≈ 0.31 µM) | MIC (E. faecalis GC 4555; GC4555, read-out: MINIMAL INHIBITORY CONCENTRATION MIC, pre-incubated in Water): 64 µg/mL (≈ 79.4 µM) | MIC (S. typhimurium GC 2172; [1]): 8 µg/mL (≈ 9.93 µM) | MIC (S. typhimurium GC 2172; [2]): > 64 µg/mL | MIC (S. epidermidis GC 4935; GC4935, read-out: MINIMAL INHIBITORY CONCENTRATION MIC, pre-incubated in Mouse Serum): 1 µg/mL (≈ 1.24 µM) | MIC (S. epidermidis GC 4935; GC4935, read-out: MINIMAL INHIBITORY CONCENTRATION MIC, pre-incubated in Water): 32 µg/mL (≈ 39.7 µM) | MIC (E. faecalis GC 2242; GC2242, read-out: MINIMAL INHIBITORY CONCENTRATION MIC, pre-incubated in Mouse Serum): 0.5 µg/mL (≈ 0.62 µM) | MIC (E. faecalis GC 2242; GC2242, read-out: MINIMAL INHIBITORY CONCENTRATION MIC, pre-incubated in Water): 4 µg/mL (≈ 4.96 µM) | MIC (E. coli GC 4560; GC4560, read-out: MINIMAL INHIBITORY CONCENTRATION MIC, pre-incubated in Mouse Serum): 0.25 µg/mL (≈ 0.31 µM) | MIC (E. coli GC 4560; GC4560, read-out: MINIMAL INHIBITORY CONCENTRATION MIC, pre-incubated in Water): > 64 µg/mL
Compound: CCCN(CC(=O)Nc1cc(N(C)C)c2c(c1O)C(=O)C1=C(O)[C@]3(O)C(=O)C(C(N)=O)=C(O)[C@@H](N(C)C)[C@@H]3C[C@@H]1C2)C(=O)OCOC(=O)c1ccc(C(C)(C)C)cc1 [Example 28, ({[(2-{[(5aR,6aS,7S,10aS)-9-(aminocarbonyl)-4,7-bis(dimethylamino)-1,8,10a,11-tetrahydroxy-10,12-dioxo-5,5a,6,6a,7,10,10a,12-octahydrotetracen-2-yl]amino}-2-oxoethyl)(propyl)amino]carbonyl}oxy)methyl 4-tert-butylbenzoate]
ED50 (Staph. aureus Smith; Staphylococcus aureus, in Mus musculus, iv, read-out: ED50 SIV (Staph aureus Smith)): 0.6 mg/kg | ED50 (Staph. aureus Smith; Staphylococcus aureus, in Mus musculus, po, read-out: ED50 SOD (Staph aureus Smith)): 6.61 mg/kg | ED50 (Staph. aureus Smith; Staphylococcus aureus, in Mus musculus, po, read-out: ED50 Staph Smith SOD): 6.61 mg/kg | ED50 (Staph. aureus Smith; iv, read-out: ED50 Staph Smith SIV): 0.6 mg/kg
